This passage reports IC50 and Kd results from patent publication US20250059188A1, “ARYLSULPHONAMIDE COMPOUNDS” (Anaxis Pharma Pty Ltd, priority 2021, published 2025).

Molecules are shown by their SMILES. A value given as a limit tells only on which side of the number the result lay.

Assay [1] deals with U937 human histiocytic leukemia cell line. The assay can be described thus: Inhibition of TSQ induced necroptosis in U937 cells (CellTitre-Glo). The conditions noted are these: Homo sapiens, U-937, TSQ cocktail (TNF, Smac mimetic, Q-VD-OPh), 48 hours, read-out: Inhibition of TSQ-induced necroptosis (IC50 cell-based assay). Put shortly: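 U937 cells (20000/well) treated with compound (10-point, 1:3 from 36 μM, 0.3% DMSO) plus TSQ cocktail (hTNF-Fc 100 ng/ml, Smac mimetic 500 nM, Q-VD-OPh 10 μM), 48 h at 37 °C. Viability by CellTiter-Glo luminescence; IC50 from 4-parameter logistic fit. Counter screen: same cells without TSQ.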

In another assay the target is human RIPK1 (Homo sapiens (Human), UniProt Q13546). The assay can be described thus: KINOMEscan binding assay, human RIPK1. Particulars: equilibrium dissociation constant. Put shortly:
(§1)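 KINOMEscan competition binding using kinase-tagged T7 phage or HEK-293-produced DNA-tagged protein captured on ligand beads, with eluted protein quantified by qPCR. Compounds were run as an 11-point 3-fold series, top 30,000 nM, in 1% DMSO. Kd was fitted with the Hill equation, slope fixed at −1.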

Another assay has as its target human RIPK3 (Homo sapiens (Human), UniProt Q9Y572). The assay can be described thus: KINOMEscan binding assay, human RIPK3. Particulars: equilibrium dissociation constant. In outline:
as §1

A further assay has as its system U937 cells. As to the kind of experiment: Counter screen: U937 cell viability without TSQ cocktail (off-target effect). More on the design: species or system human. Particulars: Homo sapiens, U-937, compound without TSQ cocktail, read-out: Off-target effect (IC50 cell-based assay). In outline: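 U937 cells (20,000/well) exposed to compound (10-point 1:3 titration from 36 μM, 0.3% DMSO) without TSQ cocktail for 48 h at 37 °C/5% CO2. Viability read as ATP by CellTiter-Glo luminescence; IC50 from 4-parameter logistic fit.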

For a further assay, the target named is human MLKL (full length) (Homo sapiens (Human), UniProt Q8NB16). As to the kind of experiment: KINOMEscan binding assay, human MLKL (full length). Particulars: equilibrium dissociation constant. Put shortly:
as §1

Sequence of human RIPK1 (Q13546 whole entry): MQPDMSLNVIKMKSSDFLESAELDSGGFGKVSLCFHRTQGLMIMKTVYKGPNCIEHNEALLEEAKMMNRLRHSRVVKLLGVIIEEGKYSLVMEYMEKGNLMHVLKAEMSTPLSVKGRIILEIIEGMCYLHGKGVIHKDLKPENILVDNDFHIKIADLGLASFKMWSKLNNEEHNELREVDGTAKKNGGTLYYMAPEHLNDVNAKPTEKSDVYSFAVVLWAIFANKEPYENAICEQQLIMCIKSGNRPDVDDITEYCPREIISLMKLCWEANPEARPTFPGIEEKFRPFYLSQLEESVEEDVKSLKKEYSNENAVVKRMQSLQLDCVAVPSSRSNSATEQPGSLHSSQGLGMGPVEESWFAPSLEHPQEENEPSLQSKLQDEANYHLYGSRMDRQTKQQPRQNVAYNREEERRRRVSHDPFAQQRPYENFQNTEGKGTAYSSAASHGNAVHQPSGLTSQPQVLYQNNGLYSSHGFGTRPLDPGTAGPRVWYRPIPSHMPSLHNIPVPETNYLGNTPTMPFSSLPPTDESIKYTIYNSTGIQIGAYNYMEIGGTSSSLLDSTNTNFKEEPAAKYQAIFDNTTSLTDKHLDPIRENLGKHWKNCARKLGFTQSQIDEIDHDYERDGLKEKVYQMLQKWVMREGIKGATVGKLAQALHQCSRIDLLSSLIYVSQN
Sequence of human MLKL (full length) (Q8NB16 whole entry): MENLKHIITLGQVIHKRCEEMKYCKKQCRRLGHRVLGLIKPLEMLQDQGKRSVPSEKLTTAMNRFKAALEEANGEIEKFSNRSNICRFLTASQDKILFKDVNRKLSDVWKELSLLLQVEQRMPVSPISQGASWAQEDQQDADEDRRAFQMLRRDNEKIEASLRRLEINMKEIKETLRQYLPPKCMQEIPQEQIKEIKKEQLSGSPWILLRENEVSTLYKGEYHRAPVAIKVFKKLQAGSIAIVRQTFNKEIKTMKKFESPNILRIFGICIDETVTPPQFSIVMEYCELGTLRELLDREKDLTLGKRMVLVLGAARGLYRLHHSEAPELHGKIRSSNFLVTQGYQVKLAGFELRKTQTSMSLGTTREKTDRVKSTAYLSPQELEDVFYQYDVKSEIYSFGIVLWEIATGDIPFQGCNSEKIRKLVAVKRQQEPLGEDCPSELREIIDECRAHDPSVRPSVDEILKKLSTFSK
Sequence of human RIPK3 (Q9Y572 whole entry): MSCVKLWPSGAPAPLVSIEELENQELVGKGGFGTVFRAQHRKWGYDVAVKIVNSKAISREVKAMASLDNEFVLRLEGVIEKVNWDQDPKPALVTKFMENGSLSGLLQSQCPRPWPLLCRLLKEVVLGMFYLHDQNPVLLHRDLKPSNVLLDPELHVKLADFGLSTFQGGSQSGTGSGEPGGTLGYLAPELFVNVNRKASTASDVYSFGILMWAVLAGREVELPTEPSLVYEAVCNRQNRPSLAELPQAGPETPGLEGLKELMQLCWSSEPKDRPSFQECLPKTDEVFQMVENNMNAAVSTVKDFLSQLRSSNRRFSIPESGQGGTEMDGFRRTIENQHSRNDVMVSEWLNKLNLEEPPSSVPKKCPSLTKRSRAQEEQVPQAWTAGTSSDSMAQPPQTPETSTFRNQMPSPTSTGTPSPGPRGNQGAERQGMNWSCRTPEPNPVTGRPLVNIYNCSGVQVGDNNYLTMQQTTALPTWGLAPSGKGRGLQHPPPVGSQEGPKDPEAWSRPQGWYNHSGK

For the molecule `C[C@H](Oc1cc(-c2nn(C)c3c(-c4ccnc(C(C)(C)C)c4)cnc(N)c23)ccc1NS(=O)(=O)C(F)F)c1ccc(F)cc1` [Compound 48, (S)-N-(4-(4-amino-7-(2-(tert-butyl)pyridin-4-yl)-1-methyl-1H-pyrazolo[4,3-c]pyridin-3-yl)-2-(1-(4-fluorophenyl)ethoxy)phenyl)-1,1-difluoromethanesulfonamide], the IC50 in assay [1] was 1 to 10 µM; in the assay with U937 cells it was greater than 10 µM. The results for the dissociation constant (Kd) on human RIPK1, at human RIPK3 and at human MLKL (full length) were greater than 10 µM, greater than 10 µM and 0.001 to 0.1 µM, respectively.

As to `CC(C)n1nc(-c2ccc(NS(=O)(=O)C(F)F)c(O[C@@H](C)c3ccc(F)cc3)c2)c2c(N)ncc(-c3ccncc3)c21` [Compound 50, (S)-N-(4-(4-amino-1-isopropyl-7-(pyridin-4-yl)-1H-pyrazolo[4,3-c]pyridin-3-yl)-2-(1-(4-fluorophenyl)ethoxy)phenyl)-1,1-difluoromethanesulfonamide], the IC50 in assay [1] was 0.01 to 1 µM; in the assay with U937 cells it was greater than 10 µM. The Kd at human RIPK1 is greater than 10 µM; on human RIPK3, greater than 10 µM; on human MLKL (full length), less than 0.001 µM.

For the molecule `CC(C)n1nc(-c2ccc(NS(=O)(=O)C(F)F)c(O[C@@H](C)c3ccc(F)cc3)c2)c2c(N)ncc(-c3cnn(C4CCOCC4)c3)c21` [Compound 51, (S)-N-(4-(4-amino-1-isopropyl-7-(1-(tetrahydro-2H-pyran-4-yl)-1H-pyrazol-4-yl)-1H-pyrazolo[4,3-c]pyridin-3-yl)-2-(1-(4-fluorophenyl)ethoxy)phenyl)-1,1-difluoromethanesulfonamide], the IC50 is 0.01 to 1 µM in assay [1] and greater than 10 µM in the assay with U937 cells. For the same molecule, the Kd at human RIPK1 was greater than 10 µM; on human RIPK3 it was greater than 10 µM; at human MLKL (full length), 0.001 to 0.1 µM.

`CC(C)n1nc(-c2ccc(NS(=O)(=O)C(F)F)c(O[C@@H](C)c3ccc(F)cc3)c2)c2c(N)ncc(-c3cnn(C)c3)c21` [Compound 52, (S)-N-(4-(4-amino-1-isopropyl-7-(1-methyl-1H-pyrazol-4-yl)-1H-pyrazolo[4,3-c]pyridin-3-yl)-2-(1-(4-fluorophenyl)ethoxy)phenyl)-1,1-difluoromethanesulfonamide]: the 50% inhibitory concentration (IC50) in assay [1] was 0.01 to 1 µM; in the assay with U937 cells it was greater than 10 µM. Besides, the Kd was greater than 10 µM at human RIPK1, greater than 10 µM at human RIPK3 and 0.001 to 0.1 µM at human MLKL (full length).

Turning to `C[C@H](Oc1cc(-c2nn(C)c3c(C4=CCCN(C)C4)cnc(N)c23)ccc1NS(=O)(=O)C(F)F)c1ccc(F)cc1` [Compound 55, (S)—N-(4-(4-amino-1-methyl-7-(1-methyl-1,2,5,6-tetrahydropyridin-3-yl)-1H-pyrazolo[4,3-c]pyridin-3-yl)-2-(1-(4-fluorophenyl)ethoxy)phenyl)-1,1-difluoromethanesulfonamide], the half-maximal inhibitory concentration (IC50) is 1 to 10 µM in assay [1] and greater than 10 µM in the assay with U937 cells. The Kd on human RIPK1 was greater than 10 µM; at human RIPK3, greater than 10 µM; at human MLKL (full length) it was less than 0.001 µM.

On to `CC#Cc1cnc(N)c2c(-c3ccc(NS(=O)(=O)C(F)F)c(O[C@@H](C)c4ccc(F)cc4)c3)nn(C)c12` [Compound 56, (S)-N-(4-(4-amino-1-methyl-7-(prop-1-yn-1-yl)-1H-pyrazolo[4,3-c]pyridin-3-yl)-2-(1-(4-fluorophenyl)ethoxy)phenyl)-1,1-difluoromethanesulfonamide], for which the 50% inhibitory concentration (IC50) is 0.01 to 1 µM in assay [1] and greater than 10 µM with U937 cells. For the same molecule, the dissociation constant Kd at human RIPK1 was greater than 10 µM; on human RIPK3, greater than 10 µM; at human MLKL (full length), less than 0.001 µM.

As for `C[C@H](Oc1cc(-c2nn(C)c3c(-c4ccnc(C(F)F)c4)cnc(N)c23)ccc1NS(=O)(=O)C(F)F)c1ccc(F)cc1` [Compound 57, (S)-N-(4-(4-amino-7-(2-(difluoromethyl)pyridin-4-yl)-1-methyl-1H-pyrazolo[4,3-c]pyridin-3-yl)-2-(1-(4-fluorophenyl)ethoxy)phenyl)-1,1-difluoromethanesulfonamide], the IC50 was 0.01 to 1 µM in assay [1] and greater than 10 µM with U937 cells. In addition, the figures for the Kd at human RIPK1, on human RIPK3 and on human MLKL (full length) were greater than 10 µM, greater than 10 µM and 0.001 to 0.1 µM, respectively.

For `C[C@H](Oc1cc(-c2nn(C)c3c(C#CC4CCOCC4)cnc(N)c23)ccc1NS(=O)(=O)C(F)F)c1ccc(F)cc1` [Compound 58, (S)-N-(4-(4-amino-1-methyl-7-((tetrahydro-2H-pyran-4-yl)ethynyl)-1H-pyrazolo[4,3-c]pyridin-3-yl)-2-(1-(4-fluorophenyl)ethoxy)phenyl)-1,1-difluoromethanesulfonamide], the IC50 in assay [1] is 0.01 to 1 µM; in the assay with U937 cells, greater than 10 µM. Moreover, the Kd at human RIPK1 is greater than 10 µM; at human RIPK3 it was greater than 10 µM; at human MLKL (full length), less than 0.001 µM.

In the case of `C[C@H](Oc1cc(-c2nn(C)c3c(-c4cnn(C5CCNCC5)c4)cnc(N)c23)ccc1NS(=O)(=O)C(F)F)c1ccc(F)cc1` [Compound 59, (S)-N-(4-(4-amino-1-methyl-7-(1-(piperidin-4-yl)-1H-pyrazol-4-yl)-1H-pyrazolo[4,3-c]pyridin-3-yl)-2-(1-(4-fluorophenyl)ethoxy)phenyl)-1,1-difluoromethanesulfonamide], the half-inhibitory concentration (IC50) in assay [1] was 0.01 to 1 µM; with U937 cells it was greater than 10 µM. In addition, the Kd on human RIPK1 was greater than 10 µM; on human RIPK3 it was greater than 10 µM; on human MLKL (full length), less than 0.001 µM.

Take `C[C@H](Oc1cc(-c2nn(C)c3c(-c4cnn(C5CC6CCC(C5)N6C)c4)cnc(N)c23)ccc1NS(=O)(=O)C(F)F)c1ccc(F)cc1` (stereo partly drawn) [Compound 73, N-(4-(4-amino-1-methyl-7-(1-(8-methyl-8-azabicyclo[3.2.1]octan-3-yl)-1H-pyrazol-4-yl)-1H-pyrazolo[4,3-c]pyridin-3-yl)-2-((S)-1-(4-fluorophenyl)ethoxy)phenyl)-1,1-difluoromethanesulfonamide]: the IC50 in assay [1] is 0.01 to 1 µM; in the assay on U937 cells it was greater than 10 µM. Further, the results for the dissociation constant Kd on human RIPK1, at human RIPK3 and on human MLKL (full length) were greater than 10 µM, greater than 10 µM and less than 0.001 µM, respectively.

Turning to `C[C@H](Oc1cc(-c2nn(C)c3c(-c4cnn(C5CCCNCC5)c4)cnc(N)c23)ccc1NS(=O)(=O)C(F)F)c1ccc(F)cc1` (stereo partly drawn) [Compound 74, N-(4-(4-amino-7-(1-(azepan-4-yl)-1H-pyrazol-4-yl)-1-methyl-1H-pyrazolo[4,3-c]pyridin-3-yl)-2-((S)-1-(4-fluorophenyl)ethoxy)phenyl)-1,1-difluoromethanesulfonamide], the results for the IC50 (in assay [1]; with U937 cells) were 0.01 to 1 µM and greater than 10 µM, respectively. Further, the Kd at human RIPK1 was greater than 10 µM; at human RIPK3, greater than 10 µM; on human MLKL (full length), less than 0.001 µM.

For `C[C@H](Oc1cc(-c2nn(C)c3c(-c4cnn(CCN5CC(C)(C)C5)c4)cnc(N)c23)ccc1NS(=O)(=O)C(F)F)c1ccc(F)cc1` [Compound 75, (S)-N-(4-(4-amino-7-(1-(2-(3,3-dimethylazetidin-1-yl)ethyl)-1H-pyrazol-4-yl)-1-methyl-1H-pyrazolo[4,3-c]pyridin-3-yl)-2-(1-(4-fluorophenyl)ethoxy)phenyl)-1,1-difluoromethanesulfonamide], the figures for the IC50 (in assay [1]; in the assay on U937 cells) were less than 0.01 µM and greater than 10 µM, respectively. The Kd on human RIPK1 was greater than 10 µM; at human RIPK3, greater than 10 µM; on human MLKL (full length) it was less than 0.001 µM.
